# Laboratory results taken from PMC11003488 (Journal of Enzyme Inhibition and Medicinal Chemistry, 2023).
# What was measured:
# OVCAR-3 = assay: NCI-60 SRB growth inhibition, one-dose and five-dose; format: cell-based; conditions: Homo sapiens
# HT29 = assay: as above; format: cell-based; conditions: Homo sapiens
# COLO 205 = assay: as above; format: cell-based; conditions: Homo sapiens
# SK-MEL-5 = assay: as above; format: cell-based; conditions: Homo sapiens
# NCI-H460 = assay: as above; format: cell-based; conditions: Homo sapiens
# NCI-H522 = assay: as above; format: cell-based; conditions: Homo sapiens
# HCT-116 = assay: as above; format: cell-based; conditions: Homo sapiens
# NCI/ADR-RES = assay: as above; format: cell-based; conditions: Homo sapiens
# MCF7 = assay: as above; format: cell-based; conditions: Homo sapiens
# LOX IMVI = assay: as above; format: cell-based; conditions: Homo sapiens
# CCRF-CEM = assay: as above; format: cell-based; conditions: Homo sapiens
# SF-539 = assay: as above; format: cell-based; conditions: Homo sapiens
# NCI-H322M = assay: as above; format: cell-based; conditions: Homo sapiens
# UACC-62 = assay: as above; format: cell-based; conditions: Homo sapiens
# SF-295 = assay: as above; format: cell-based; conditions: Homo sapiens
# OVCAR-4 = assay: as above; format: cell-based; conditions: Homo sapiens
# RXF 393 = assay: as above; format: cell-based; conditions: Homo sapiens
# ACHN = assay: as above; format: cell-based; conditions: Homo sapiens
# DU-145 = assay: as above; format: cell-based; conditions: Homo sapiens
# 786-0 = assay: as above; format: cell-based; conditions: Homo sapiens
# T-47D = assay: as above; format: cell-based; conditions: Homo sapiens, T47D
# BT-549 = assay: as above; format: cell-based; conditions: Homo sapiens
# HOP-92 = assay: as above; format: cell-based; conditions: Homo sapiens
# SK-MEL-2 = assay: as above; format: cell-based; conditions: Homo sapiens, SK-MEL-2, read-out: percent growth inhibition
# MALME-3M = assay: as above; format: cell-based; conditions: Homo sapiens
# A549/ATCC = assay: as above; format: cell-based; conditions: Homo sapiens
# SF-268 = assay: as above; format: cell-based; conditions: Homo sapiens
# HS 578 T = assay: as above; format: cell-based; conditions: Homo sapiens
# OVCAR-5 = assay: as above; format: cell-based; conditions: Homo sapiens
# SNB-75 = assay: as above; format: cell-based; conditions: Homo sapiens
# [1] = test system: NCI 60-cell line panel (full panel); assay: NCI-60 SRB growth inhibition, full panel mean / MG-MID; format: cell-based, human
# A498 = assay: NCI-60 SRB growth inhibition, one-dose and five-dose; format: cell-based; conditions: Homo sapiens
# HOP-62 = assay: as above; format: cell-based; conditions: Homo sapiens
# IGROV1 = assay: as above; format: cell-based; conditions: Homo sapiens
# HCC-2998 = assay: as above; format: cell-based; conditions: Homo sapiens
# NCI-H226 = assay: as above; format: cell-based; conditions: Homo sapiens
# HCT-15 = assay: as above; format: cell-based; conditions: Homo sapiens
# SNB-19 = assay: as above; format: cell-based; conditions: Homo sapiens
# K-562 = assay: as above; format: cell-based; conditions: Homo sapiens
# SR = assay: as above; format: cell-based; conditions: Homo sapiens
# CAKI-1 = assay: as above; format: cell-based; conditions: Homo sapiens
# MDA-MB-435 = assay: as above; format: cell-based; conditions: Homo sapiens
# [2] = read-out: percent growth inhibition
smiles,measurement,setting,value
"CC(=O)Nc1ccc(/C=C/C(=O)c2cccc(NCc3csc4ccccc34)c2)cc1 [Compound 5i, (E)-N-(4–(3-(3-((benzo[b]thiophen-3-ylmethyl)amino)phenyl)-3-oxoprop-1-en-1-yl)phenyl) acetamide]",GI50,OVCAR-3; OVCAR-3,3.47 µM
same,inhibition at 10 µM,"OVCAR-3; OVCAR-3, read-out: percent growth inhibition",133%
same,GI50,HT29; HT-29,5.38 µM
same,inhibition at 10 µM,"HT29; HT-29, read-out: percent growth inhibition",92.8%
same,GI50,COLO 205; COLO 205,17 µM
same,inhibition at 10 µM,"COLO 205; COLO 205, read-out: percent growth inhibition",19.8%
same,GI50,SK-MEL-5; SK-MEL-5,5.97 µM
same,inhibition at 10 µM,"SK-MEL-5; SK-MEL-5, read-out: percent growth inhibition",85.9%
same,GI50,NCI-H460; NCI-H460,3.84 µM
same,inhibition at 10 µM,"NCI-H460; NCI-H460, read-out: percent growth inhibition",88.9%
same,GI50,NCI-H522; NCI-H522,5.78 µM
same,inhibition at 10 µM,"NCI-H522; NCI-H522, read-out: percent growth inhibition",87.6%
same,GI50,"HCT-116; HCT-116, HCT-116, five-dose screening",2.02 µM
same,inhibition at 10 µM,"HCT-116; HCT-116, read-out: percent growth inhibition",180%
same,GI50,NCI/ADR-RES,2.79 µM
same,inhibition at 10 µM,NCI/ADR-RES; [2],117%
same,GI50,MCF7; MCF7,2.4 µM
same,inhibition at 10 µM,"MCF7; MCF7, read-out: percent growth inhibition",130%
same,GI50,LOX IMVI,2.05 µM
same,inhibition at 10 µM,LOX IMVI; [2],174%
same,GI50,CCRF-CEM,2.87 µM
same,inhibition at 10 µM,CCRF-CEM; [2],125%
same,GI50,SF-539; SF-539,2.74 µM
same,inhibition at 10 µM,"SF-539; SF-539, read-out: percent growth inhibition",171%
same,GI50,NCI-H322M,17.5 µM
same,inhibition at 10 µM,NCI-H322M; [2],41.2%
same,GI50,UACC-62; UACC-62,6.44 µM
same,inhibition at 10 µM,"UACC-62; UACC-62, read-out: percent growth inhibition",76.7%
same,GI50,SF-295; SF-295,11.9 µM
same,inhibition at 10 µM,"SF-295; SF-295, read-out: percent growth inhibition",73.1%
same,GI50,OVCAR-4; OVCAR-4,9.52 µM
same,inhibition at 10 µM,"OVCAR-4; OVCAR-4, read-out: percent growth inhibition",64.8%
same,GI50,RXF 393; RXF 393,10 µM
same,inhibition at 10 µM,"RXF 393; RXF 393, read-out: percent growth inhibition",93.2%
same,GI50,ACHN,7.35 µM
same,inhibition at 10 µM,ACHN; [2],51.4%
same,GI50,DU-145; DU-145,5.45 µM
same,inhibition at 10 µM,"DU-145; DU-145, read-out: percent growth inhibition",74.7%
same,GI50,786-0; 786-0,11.4 µM
same,inhibition at 10 µM,"786-0; 786-0, read-out: percent growth inhibition",81.8%
same,GI50,T-47D,4.14 µM
same,inhibition at 10 µM,T-47D; [2],79.7%
same,GI50,BT-549; BT-549,4.29 µM
same,inhibition at 10 µM,"BT-549; BT-549, read-out: percent growth inhibition",83.6%
same,GI50,HOP-92; HOP-92,18.3 µM
same,inhibition at 10 µM,"HOP-92; HOP-92, read-out: percent growth inhibition",12.3%
same,inhibition at 10 µM,SK-MEL-2,39.9%
same,GI50,MALME-3M,9.28 µM
same,inhibition at 10 µM,MALME-3M; [2],55.5%
same,GI50,A549/ATCC; A549,17 µM
same,inhibition at 10 µM,"A549/ATCC; A549, read-out: percent growth inhibition",45.8%
same,GI50,SF-268; SF-268,12.7 µM
same,inhibition at 10 µM,"SF-268; SF-268, read-out: percent growth inhibition",80%
same,GI50,HS 578 T,4.49 µM
same,inhibition at 10 µM,HS 578 T; [2],68.5%
same,GI50,OVCAR-5; OVCAR-5,13 µM
same,inhibition at 10 µM,"OVCAR-5; OVCAR-5, read-out: percent growth inhibition",30.4%
same,GI50,SNB-75; SNB-75,3.39 µM
same,inhibition at 10 µM,"SNB-75; SNB-75, read-out: percent growth inhibition",30.5%
same,GI50,"[1]; Homo sapiens, 60 cell, read-out: Full panel GI50 mean",7.06 µM
same,Full panel Mean GI %,"[1]; mean over NCI-60 panel, single dose 10 µM",82.81%
same,GI50,A498; A498,17.4 µM
same,inhibition at 10 µM,"A498; A498, read-out: percent growth inhibition",9.33%
same,GI50,HOP-62; HOP-62,11.2 µM
same,inhibition at 10 µM,"HOP-62; HOP-62, read-out: percent growth inhibition",73.8%
same,GI50,IGROV1; IGROV-1,4.18 µM
same,inhibition at 10 µM,"IGROV1; IGROV-1, read-out: percent growth inhibition",56.9%
same,GI50,HCC-2998; HCC 2998,12.4 µM
same,inhibition at 10 µM,"HCC-2998; HCC 2998, read-out: percent growth inhibition",56%
same,GI50,NCI-H226; NCI-H226,7.73 µM
same,inhibition at 10 µM,"NCI-H226; NCI-H226, read-out: percent growth inhibition",91.9%
same,GI50,HCT-15; HCT-15,2.1 µM
same,inhibition at 10 µM,"HCT-15; HCT-15, read-out: percent growth inhibition",142%
same,GI50,SNB-19; SNB-19,3.76 µM
same,inhibition at 10 µM,"SNB-19; SNB-19, read-out: percent growth inhibition",98%
same,GI50,K-562; K562,3.07 µM
same,inhibition at 10 µM,"K-562; K562, read-out: percent growth inhibition",114%
same,GI50,SR,2.79 µM
same,GI50,CAKI-1; CAKI-1,18.4 µM
same,inhibition at 10 µM,"CAKI-1; CAKI-1, read-out: percent growth inhibition",57.7%
same,GI50,MDA-MB-435; MDA-MB-435,4.37 µM
same,inhibition at 10 µM,"MDA-MB-435; MDA-MB-435, read-out: percent growth inhibition",49.2%
